The target of the assay is T1, human TREM2 (Homo sapiens, UniProt Q9NZC2).
T1 construct: expressed in transfected cells; host or cells: HEK293T-hTREM2 cells (HEK cell line expressing human TREM2 and DAP12)
The assay is described as follows: In vitro measurement of TREM2 activity using cellular phosphorylation of spleen tyrosine kinase (Syk), AlphaLisa, HEK293T-hTREM2 cells. Format: cell-based. To be noted: HEK293T cells expressing human TREM2 and DAP12, 45 min at room temperature. On the procedure:
In Vitro Measurement of Triggering Receptor Expressed on Myeloid Cells 2 Activity Using Cellular Phosphorylation of Spleen Tyrosine Kinase (“Syk”) Assays
Measurement of TREM2 agonist potency was done using a HEK cell line expressing human TREM2 and DAP12 (HEK293T-hTREM2 cells). Binding of small molecules to, and activation of, TREM2 increases the phosphorylation of Syk. The resultant levels of Syk phosphorylation are measured using a commercial AlphaLisa reagent kit. To perform the assay, HEK-hTREM2 cells were plated at 14,000 cells per well in a 384 well plate, in 25 μL of complete growth media and incubated at 37° C., 5% CO2 for 20-24 hours.
Prior to the assay, test compounds were diluted in the 384 well plates in assay buffer and allowed to equilibrate for 30 minutes. Growth media was removed from cell plates by inversion on blotting paper, and 25 μL of test articles in assay buffer was added to cells. Cells were incubated for 45 minutes at room temperature. After 45 minutes, assay buffer was removed and 10 μL of lysis buffer was added. Plates were shaken for 20 minutes at 350 RPM at room temperature. After complete lysis, AlphaLisa reagents were added to the lysate, and fluourescence intensity was measured using a Perkin Elmer Envision plate reader. Intensities were used to generate a standard curve, and % activation was calculated. Curve fitting was performed using Prism v9 software, log(agonist) vs response—variable slope (four parameters), and EC50s were calculated from the curve fit.
The results presented in Tables D and D-2 have been generated with the in vitro assay described above. This assay may be used to test any of the compounds described herein to assess and characterize a compound's ability to act as an agonist of TREM2.
Background: Alpha assays give light when donor and acceptor beads are brought close together.

Molecules are shown by their SMILES.

T1 sequence (Q9NZC2 19-230): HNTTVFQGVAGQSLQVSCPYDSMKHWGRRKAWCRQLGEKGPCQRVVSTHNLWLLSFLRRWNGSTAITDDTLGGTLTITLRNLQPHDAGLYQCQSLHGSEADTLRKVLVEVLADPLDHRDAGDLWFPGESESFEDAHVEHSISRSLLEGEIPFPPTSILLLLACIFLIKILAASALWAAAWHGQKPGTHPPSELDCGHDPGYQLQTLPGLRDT
T1 sequence (O43914 22-113 partner): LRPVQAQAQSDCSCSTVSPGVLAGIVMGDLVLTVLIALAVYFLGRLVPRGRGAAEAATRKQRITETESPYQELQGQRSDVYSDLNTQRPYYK

A word on the EC50: it is the concentration at which the effect is half-maximal. Compound `CCN1Cc2c(cc(N3CCO[C@@H](c4cnn(C)c4)C3)nc2-c2ccc(Cl)cc2F)C1=O` [compound 204] gave an EC50 (Table D-2) of 0.05 to 0.5 µM.

The compound `C[C@@H]1CN(c2cc3c(c(-c4ccc(C(F)(F)F)cc4F)n2)CN(C)C3=O)C[C@H](c2cnn(C3CC3)c2)O1` [compound 221] returned a concentration for a half-maximal effect (EC50) (Table D-2) of at most 0.05 µM.

Consider `Cc1cc([C@H]2CN(c3nc(-c4ccc(F)cc4F)c4sc(N(C)C)nc4n3)C[C@@H](C)O2)ccn1` [compound 123, 7-(2,4-difluorophenyl)-N,N-dimethyl-5-[(2R,6S)-2-methyl-6-(2-methyl-4-pyridyl)morpholin-4-yl]thiazolo[4,5-d]pyrimidin-2-amine], for which the half-maximal effective concentration (EC50) (Table D) is at most 0.05 µM.

For the compound `CN1Cc2c(cc(N3CCO[C@@H](c4cnn(C5CC5)c4)C3)nc2-c2ccc(Cl)cc2F)C1=O` [compound 212], where the note is “Table D-2”, the EC50 is 0.05 to 0.5 µM.

Compound `C[C@@H]1CCCN1c1nc2nc([C@H]3CCO[C@@H](c4cnn(C5CC5)c4)C3)nc(-c3ccc(F)cc3F)c2n1C` [compound 124, 6-(2,4-difluorophenyl)-7-methyl-2-[(2R,4S)-2-(1-cyclopropylpyrazol-4-yl)tetrahydropyran-4-yl]-8-[(2R)-2-methylpyrrolidin-1-yl]purine] yielded a concentration giving a half-maximal response (EC50) (Table D) of 0.05 to 0.5 µM.

For the compound `Cc1cc([C@H]2CN(c3cc4c(c(-c5ccc(Cl)cc5F)n3)[C@@H](C)N(C)C4=O)CCO2)ccn1` [compound 214], the concentration for a half-maximal effect (EC50) (Table D-2) was 3 to 100 µM.

Turning to `CN(C)c1nc2nc([C@H]3CCO[C@@H](c4cnn(C5CC5)c4)C3)nc(-c3ccc(C(F)F)cc3F)c2s1` [compound 103, 5-[(2R,4S)-2-(1-cyclopropylpyrazol-4-yl)tetrahydropyran-4-yl]-7-[4-(difluoromethyl)-2-fluoro-phenyl]-N,N-dimethyl-thiazolo[4,5-d]pyrimidin-2-amine], the concentration giving a half-maximal response (EC50) (Table D) lay within 0.05 to 0.5 µM.

Regarding `CN(C)c1nc2nc(C3CCO[C@@H](c4cnn(C5CC5)c4)C3)nc(-c3ccc(F)c(F)c3F)c2s1` (stereo in doubt) [compound 107, 5-[(2R,4R)-2-(1-cyclopropylpyrazol-4-yl)tetrahydropyran-4-yl]-N,N-dimethyl-7-(2,3,4-trifluorophenyl)thiazolo[4,5-d]pyrimidin-2-amine], under “Table D”, the EC50 was at most 0.05 µM.

In turn, `C[C@@H]1CN(c2cc3c(c(C4CCC(C(F)(F)F)CC4)n2)CN(C)C3=O)C[C@H](c2cnn(C3CC3)c2)O1` (mixture of isomers) [compound 227, 6-[(2S,6R)-2-(1-cyclopropylpyrazol-4-yl)-6-methyl-morpholin-4-yl]-2-methyl-4-[4-(trifluoromethyl)cyclohexyl]-3H-pyrrolo[3,4-c]pyridin-1-one] returned an EC50 (Table D-2) of 0.05 to 0.5 µM.

`CN(C)c1nc2nc(N3CCO[C@H](c4cnn(C5CC5)c4)C3)nc(-c3ccc(F)cc3F)c2s1` [compound 101, 5-[(2R)-2-(1-cyclopropylpyrazol-4-yl)morpholin-4-yl]-7-(2,4-difluorophenyl)-N,N-dimethyl-thiazolo[4,5-d]pyrimidin-2-amine] showed an EC50 (Table D) of 0.05 to 0.5 µM.

`Cc1cc([C@H]2CN(c3cc4c(c(-c5ccc(Cl)cc5F)n3)[C@H](C)N(C)C4=O)CCO2)ccn1` [compound 215] came in with an EC50 (Table D-2) of 3 to 100 µM.

On to `C[C@@H]1c2c(cc(N3CCO[C@@H](c4cnn(C)c4)C3)nc2-c2ccc(Cl)cc2F)C(=O)N1C` [compound 209], for which the EC50 (Table D-2) was 3 to 100 µM.

Compound `Cc1cc([C@H]2C[C@@H](c3nc(-c4ccc(F)cc4F)c4sc(N(C)C)nc4n3)CCO2)ccn1` [compound 116, 7-(2,4-difluorophenyl)-N,N-dimethyl-5-[(2R,4S)-2-(2-methyl-4-pyridyl)tetrahydropyran-4-yl]thiazolo[4,5-d]pyrimidin-2-amine] came in with a concentration giving a half-maximal response (EC50) (Table D) of at most 0.05 µM.

In the case of `Cc1ccc(-c2nc(N3C[C@@H](C)O[C@@H](c4cnn(C5CC5)c4)C3)nc3nc(N(C)C)sc23)c(F)c1` [compound 110, 5-[(2S,6R)-2-(1-cyclopropylpyrazol-4-yl)-6-methyl-morpholin-4-yl]-7-(2-fluoro-4-methyl-phenyl)-N,N-dimethyl-thiazolo[4,5-d]pyrimidin-2-amine], the concentration for a half-maximal effect (EC50) (Table D) was at most 0.05 µM.

For the compound `CN(C)c1nc2nc(C3CCO[C@@H](c4cnn(C5CC5)c4)C3)nc(-c3ccc(F)c(F)c3F)c2s1` (stereo in doubt) [compound 108, 5-[(2R,4S)-2-(1-cyclopropylpyrazol-4-yl)tetrahydropyran-4-yl]-N,N-dimethyl-7-(2,3,4-trifluorophenyl)thiazolo[4,5-d]pyrimidin-2-amine], under “Table D”, the 50% effective concentration (EC50) lay within 0.05 to 0.5 µM.

Under “Table D-2”, `CN1Cc2c(cc(N3CCO[C@@H](c4cnn(C)c4)C3)nc2C2CC(C(F)(F)F)C2)C1=O` (stereo partly shown) [compound 216] displayed an EC50 of 3 to 100 µM.

With `Cc1cc([C@H]2CN(c3cc4c(c(-c5ccc(Cl)cc5F)n3)CN(C)C4=O)CCO2)ccn1` [compound 201], the EC50 (Table D-2) lay within 0.5 to 3 µM.

For the compound `CN(C)c1nc2nc(C3CCO[C@@H](c4cnn(C5CC5)c4)C3)nc(-c3cc(F)ccc3F)c2s1` (mixture of isomers) [compound 104, 7-(2,5-difluorophenyl)-N,N-dimethyl-5-[rac-(2R)-2-(1-cyclopropylpyrazol-4-yl)tetrahydropyran-4-yl]thiazolo[4,5-d]pyrimidin-2-amine], the concentration giving a half-maximal response (EC50) (Table D) was in the range of 0.05 to 0.5 µM.

Under “Table D”, `CN(C)c1nc2c(C34CC(C(F)(F)F)(C3)C4)nc([C@H]3CCO[C@@H](c4cnn(C5CC5)c4)C3)nc2n1C` [compound 128, 2-[(2R,4S)-2-(1-cyclopropylpyrazol-4-yl)tetrahydropyran-4-yl]-N,N-9-trimethyl-6-[3-(trifluoromethyl)-1-bicyclo[1.1.1]pentanyl]purin-8-amine] gave a half-maximal effective concentration (EC50) of 0.5 to 3 µM.

As to `CN1C(=O)c2cc(N3CCO[C@@H](c4cnn(C)c4)C3)nc(-c3ccc(Cl)cc3F)c2C1(C)C` [compound 208], the EC50 (Table D-2) fell in the range of 3 to 100 µM.

As to `C[C@H]1CN(c2cc3c(c(-c4ccc(Cl)cc4F)n2)CN(C)C3=O)CCO1` [compound 206], under “Table D-2”, the EC50 was 0.5 to 3 µM.

On to `CCCc1nc2nc(N3C[C@@H](C)O[C@@H](c4cnn(C5CC5)c4)C3)nc(-c3ccc(F)cc3F)c2s1` [compound 114, (2S,6R)-2-(1-cyclopropyl-1H-pyrazol-4-yl)-4-(7-(2,4-difluorophenyl)-2-propylthiazolo[4,5-d]pyrimidin-5-yl)-6-methylmorpholine], for which the half-maximal effective concentration (EC50) (Table D) is at most 0.05 µM.

`CN(C)c1nc2nc([C@H]3CCO[C@@H](c4ccc(=O)n(C)c4)C3)nc(-c3ccc(F)cc3F)c2s1` (stereo in doubt) [compound 119, 5-[(2R,4S)-4-[7-(2,4-difluorophenyl)-2-(dimethylamino)thiazolo[4,5-d]pyrimidin-5-yl]tetrahydropyran-2-yl]-1-methyl-pyridin-2-one] yielded a concentration for a half-maximal effect (EC50) (Table D) of 0.05 to 0.5 µM.

Compound `C[C@@H]1CN(c2cc3c(c(-c4ccc(C(F)(F)F)cc4F)n2)CN(c2ccn(C)n2)C3=O)C[C@H](c2cnn(C3CC3)c2)O1` [compound 228, 6-((2S,6R)-2-(1-cyclopropyl-1H-pyrazol-4-yl)-6-methylmorpholino)-4-(2-fluoro-4-(trifluoromethyl)phenyl)-2-(1-methyl-1H-pyrazol-3-yl)-2,3-dihydro-1H-pyrrolo[3,4-c]pyridin-1-one] registered an EC50 (Table D-2) of at most 0.05 µM.

`C[C@@H]1CN(c2nc(-c3ccc(F)cc3F)c3sc(N4CCC[C@@H]4C)nc3n2)C[C@H](c2cnn(C3CC3)c2)O1` [compound 112, (2S,6R)-2-(1-cyclopropylpyrazol-4-yl)-4-[7-(2,4-difluorophenyl)-2-[(2S)-2-methylpyrrolidin-1-yl]thiazolo[4,5-d]pyrimidin-5-yl]-6-methyl-morpholine] displayed a 50% effective concentration (EC50) (Table D) of at most 0.05 µM.

For the compound `CN1Cc2c(cc(N3CCO[C@@H](c4cnn(C)c4)C3)nc2-c2ccc(Cl)cc2F)C1=O` [compound 200], the 50% effective concentration (EC50) (Table D-2) is 3 to 100 µM.

For the compound `C[C@@H]1CN(c2nc(-c3ccc(C(F)F)cc3F)c3sc(N(C)C)nc3n2)C[C@H](c2cnn(C3CC3)c2)O1` [compound 102, 5-[(2S,6R)-2-(1-cyclopropylpyrazol-4-yl)-6-methyl-morpholin-4-yl]-7-[4-(difluoromethyl)-2-fluoro-phenyl]-N,N-dimethyl-thiazolo[4,5-d]pyrimidin-2-amine], the concentration for a half-maximal effect (EC50) (Table D) was at most 0.05 µM.

Consider `Cn1c(C(F)F)nc2nc([C@H]3CCO[C@@H](c4cnn(C5CC5)c4)C3)nc(-c3ccc(C(F)(F)F)cc3F)c21` [compound 127, 2-[(2R,4S)-2-(1-cyclopropylpyrazol-4-yl)tetrahydropyran-4-yl]-8-(difluoromethyl)-6-[2-fluoro-4-(trifluoromethyl)phenyl]-7-methyl-purine], for which, where the note is “Table D”, the EC50 lay within 0.05 to 0.5 µM.

With `Cc1cn2c(-c3ccc(Cl)cc3F)nc(N3C[C@@H](C)O[C@@H](c4cnn(C5CC5)c4)C3)cc2n1` [compound 134, (2S,6R)-4-(5-(4-chloro-2-fluorophenyl)-2-methylimidazo[1,2-c]pyrimidin-7-yl)-2-(1-cyclopropyl-1H-pyrazol-4-yl)-6-methylmorpholine], the EC50 (Table D) is 0.05 to 0.5 µM.

For the setting “Table D-2”, `Cc1cc([C@H]2CN(c3cc4c(c(-c5ccc(F)cc5F)n3)CN(C)C4=O)CCO2)ccn1` [compound 203] yielded a concentration for a half-maximal effect (EC50) of 3 to 100 µM.

In the case of `Cc1cc([C@H]2CN(c3cc4c(c(-c5ccc(Cl)cc5F)n3)CN(C)C4=O)CCO2)cnn1` [compound 217], where the note is “Table D-2”, the EC50 fell in the range of 0.5 to 3 µM.

For the origin of these results see patent US20260315483A1, “HETEROCYCLIC COMPOUNDS AS TRIGGERING RECEPTOR EXPRESSED ON MYELOID CELLS 2 AGONISTS AND METHODS OF USE” (VIGIL NEUROSCIENCE, INC., priority 2023, published 2026).
